Measurements as given in patent US20200397751A1, “Modulation of AMPA/kainate Receptors for the Treatment of Hypoglycemia” (priority 2017, published 2020).

System: isolated rodent islets
Test: Glucagon secretion by isolated rodent islets in culture at varying glucose concentrations, 1 hr PAM treatment, glucagon by ELISA
Format: cell-based
Method: In an in vitro approach, isolated rodent islets maintained in culture in 96-well plates are treated for 1 hr with PAMs. Simultaneous with addition of PAMs, islets are exposed by media exchange to glucose concentrations ranging from hypoglycemic to hyperglycemic: e.g., 2 mM, 6 mM, 12 mM, 18 mM, etc. At the end of a 1 hour PAM treatment in varying glucose concentrations, glucagon levels in each treatment condition are then measured by ELISA.

[1] = euglycemic and hyperglycemic conditions

SMILES | amount of glucagon released into a culture media by isolated islets [1] | amount of glucagon released into a culture media by isolated islets (hypoglycemic conditions)
CC(CNS(=O)(=O)C(C)C)c1ccc(-c2ccc(C#N)cc2)cc1 (stereo not drawn) [LY404187] | not | dose-dependently upregulate
O=C1c2cccnc2OC[C@@H]2CCCN12 [ORG26576] | not | dose-dependently upregulate
COc1ccc(C(=O)N2CCCC2=O)cc1 [aniracetam] | not | dose-dependently upregulate
